# Measured values from patent publication US20230241081A1, “Method for Treating Melanoma” (The Regents of the University of Colorado, a body corporate, priority 2020, published 2023).
# Residues, ends and D or L forms follow the SMILES beside them. *: point of attachment. Cbz = O=C(OCc1ccccc1)*
# Target: T1, PRL-3 (Homo sapiens, UniProt O75365)
# T1 construct: endogenous in cells; host or cells: BT-20 cells
# Experiment: PRL-3 degradation in BT-20 cells
# Assay type: cell-based
# Conditions: proteasomal inhibitor with 100 nM compound A, FIG. 6
# T1 sequence (O75365 whole entry): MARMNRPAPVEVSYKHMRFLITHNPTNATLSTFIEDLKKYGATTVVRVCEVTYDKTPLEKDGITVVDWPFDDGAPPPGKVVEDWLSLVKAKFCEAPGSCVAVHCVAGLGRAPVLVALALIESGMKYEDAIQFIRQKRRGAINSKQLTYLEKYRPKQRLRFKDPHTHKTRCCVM
smiles,measurement,value
CC(C)C[C@@H](C=O)NC(=O)[C@H](CC(C)C)NC(=O)[C@H](CC(C)C)NC(=O)OCc1ccccc1 [MG-132] (Cbz-Leu-Leu-Leu-aldehyde),effect on compound A-mediated degradation of PRL-3,block compound A-mediated degradation of PRL-3
